Reference: patent US9023821B2, “Use of MicroRNA for treating diseases associated with a dysfunction of the cilia in multiciliated epithelial cells” (Centre National de la Recherche Scientifique, priority 2009, dated 2015)

What was measured:
[1] = system: basal cells and pyramidal cells of the airway epithelium; experiment: miRNA expression in sorted basal cells versus pyramidal cells (ciliated + secretory), HTS and Agilent chips; design: species or system human; details: for Modulation of expression of the miRNAs in pyramidal cells (323(−)) relative to basal cells 323(+): HTS and Agilent chips; for Intensity of the level of expression in log2 in pyramidal cells (323(−)): pyramidal cells (ciliated + secretory)
Method in brief: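 Nasal polyp or concha epithelial cells from 3 donors were stained with CD151-PE and anti-tissue factor-FITC for 20 min at 4° C, with DAPI excluding damaged cells. CD151+/TF+ basal and CD151−/TF− ciliated/secretory cells were FACS-sorted; total RNA miRNA profiles came from Agilent chips or high-throughput sequencing.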

[2] = system: human airway epithelial cells (HAECs); experiment: Agilent miRNA chips, miRNA expression at four stages of differentiation of HAECs; details: for Modulation (ratio of the level of intensity of expression in log2 in two stages of differentiation) measured with the Agilent chips, D7 − D0 / Modulation (ratio of the level of intensity of expression in log2 in two stages of differentiation) measured with the Agilent chips, FC − D7 / Modulation (ratio of the level of intensity of expression in log2 in two stages of differentiation) measured with the Agilent chips, WD − D0 / Modulation (ratio of the level of intensity of expression in log2 in two stages of differentiation) measured with the Agilent chips, WD − FC / Level of intensity of expression in log2 measured with the Agilent chips, D0 / Level of intensity of expression in log2 measured with the Agilent chips, D7 / Level of intensity of expression in log2 measured with the Agilent chips, FC / Level of intensity of expression in log2 measured with the Agilent chips, WD: Table VI; for Modulation (ratio of the level of intensity of expression in log2 at two stages of differentiation), FC − D7 / Modulation (ratio of the level of intensity of expression in log2 at two stages of differentiation), WD − FC: Agilent miRNA chips, Table V; for Level of intensity of expression in log2 measured with the Agilent chips, D0: stage D0; for Level of intensity of expression in log2 measured with the Agilent chips, D7: stage D7; for Level of intensity of expression in log2 measured with the Agilent chips, FC: stage FC; for Level of intensity of expression in log2 measured with the Agilent chips, WD: stage WD
Method in brief: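 Patient RNA samples, the same ones analysed by high-throughput sequencing, were first labelled, then hybridized onto arrays carrying 866 human and 89 human viral miRNAs (miRBase v.12.0), following the supplied labelling and hybridization protocol.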

[3] = system: human airway epithelial cells (HAECs); experiment: High-throughput sequencing (HTS) of miRNAs at four stages of differentiation of HAECs; details: for Modulation (ratio of the level of intensity of expression in log2 in two stages of differentiation) measured by high-throughput sequencing, D7 − D0 / Modulation (ratio of the level of intensity of expression in log2 in two stages of differentiation) measured by high-throughput sequencing, FC − D7 / Modulation (ratio of the level of intensity of expression in log2 in two stages of differentiation) measured by high-throughput sequencing, WD − D0 / Modulation (ratio of the level of intensity of expression in log2 in two stages of differentiation) measured by high-throughput sequencing, WD − FC / Level of intensity of expression in log2 measured by high-throughput sequencing, D0 / Level of intensity of expression in log2 measured by high-throughput sequencing, D7 / Level of intensity of expression in log2 measured by high-throughput sequencing, FC / Level of intensity of expression in log2 measured by high-throughput sequencing, WD: Table VI; for Modulation (ratio of the level of intensity of expression in log2 in two stages of differentiation), D7 − D0 / Modulation (ratio of the level of intensity of expression in log2 in two stages of differentiation), FC − D7 / Modulation (ratio of the level of intensity of expression in log2 in two stages of differentiation), WD − FC / Abundance (%), D0 / Abundance (%), D7 / Abundance (%), FC / Abundance (%), WD: HTS; for Abundance (%), D0: ALI-D0; for Abundance (%), D7: ALI-D7; for Abundance (%), FC: ALI-FC; for Abundance (%), WD: ALI-WD; for Level of intensity of expression in log2 At the differentiated stage (WD) measured in HTS: healthy human airway epithelial tissue; for Level of intensity of expression in log2 measured by high-throughput sequencing, D0: stage D0; for Level of intensity of expression in log2 measured by high-throughput sequencing, D7: stage D7; for Level of intensity of expression in log2 measured by high-throughput sequencing, FC: stage FC; for Level of intensity of expression in log2 At the differentiated stage (WD) measured in HTS / Level of intensity of expression in log2 measured by high-throughput sequencing, WD: stage WD
Method in brief: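 Reads per 5p and 3p strand scaled to 10^6 sequences, then to percentage abundance; linear model plus empirical Bayes normalization. Retained miRNAs exceeded 1% of total in at least one condition, with |Log2 Ratio| below 0.5 and adjusted P-value below 0.05.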

Row | Substance | Modulation of expression of the miRNAs in pyramidal cells (323(−)) relative to basal cells 323(+) [1] | Intensity of the level of expression in log2 in basal cells (323(+)) [1] | Intensity of the level of expression in log2 in pyramidal cells (323(−)) [1] | Modulation (ratio of the level of intensity of expression in log2 in two stages of differentiation) measured with the Agilent chips, D7 − D0 [2] | Modulation (ratio of the level of intensity of expression in log2 in two stages of differentiation) measured with the Agilent chips, FC − D7 [2] | Modulation (ratio of the level of intensity of expression in log2 in two stages of differentiation) measured with the Agilent chips, WD − D0 [2] | Modulation (ratio of the level of intensity of expression in log2 in two stages of differentiation) measured with the Agilent chips, WD − FC [2] | Level of intensity of expression in log2 measured with the Agilent chips, D0 [2] | Level of intensity of expression in log2 measured with the Agilent chips, D7 [2] | Level of intensity of expression in log2 measured with the Agilent chips, FC [2] | Level of intensity of expression in log2 measured with the Agilent chips, WD [2] | Modulation (ratio of the level of intensity of expression in log2 in two stages of differentiation) measured by high-throughput sequencing, D7 − D0 [3] | Modulation (ratio of the level of intensity of expression in log2 in two stages of differentiation) measured by high-throughput sequencing, FC − D7 [3] | Modulation (ratio of the level of intensity of expression in log2 in two stages of differentiation) measured by high-throughput sequencing, WD − D0 [3] | Modulation (ratio of the level of intensity of expression in log2 in two stages of differentiation) measured by high-throughput sequencing, WD − FC [3] | Level of intensity of expression in log2 At the differentiated stage (WD) measured in HTS [3] | Level of intensity of expression in log2 measured by high-throughput sequencing, D0 [3] | Level of intensity of expression in log2 measured by high-throughput sequencing, D7 [3] | Level of intensity of expression in log2 measured by high-throughput sequencing, FC [3] | Level of intensity of expression in log2 measured by high-throughput sequencing, WD [3] | other results
1 | hsa-miR-130a: human miRNA, SEQ ID No. 4 (CAGUGCAAUGUUAAAAGGGCAU; expressed or natural sequence; listed as Homo sapiens) | −6.33 | 9.76 log2 | 3.43 log2 | 0.65 log2 | −1.53 log2 | −1.31 log2 | −0.43 log2 | 8.83 log2 | 9.48 log2 | 7.95 log2 | 7.52 log2 | −1.40 log2 | 0.19 log2 | −1.94 log2 | −0.73 log2 | 11.98 log2 | 13.91 log2 | 12.51 log2 | 12.71 log2 | 11.98 log2 | cell type in which the miRNA is specifically expressed ([1]; sorted ciliated/pyramidal versus basal cells): more specific to the basal cells; Modulation (ratio of the level of intensity of expression in log2 at two stages of differentiation), FC − D7 [2]: −1.53 log2; Modulation (ratio of the level of intensity of expression in log2 at two stages of differentiation), WD − FC [2]: −0.43 log2; Modulation (ratio of the level of intensity of expression in log2 in two stages of differentiation), D7 − D0 [3]: −1.40 log2; Modulation (ratio of the level of intensity of expression in log2 in two stages of differentiation), FC − D7 [3]: 0.19 log2; Modulation (ratio of the level of intensity of expression in log2 in two stages of differentiation), WD − FC [3]: −0.73 log2; Abundance (%), D0 [3]: 3.38%; Abundance (%), D7 [3]: 1.28%; Abundance (%), FC [3]: 1.42%; Abundance (%), WD [3]: 0.65%
2 | hsa-miR-140-3p: human miRNA, SEQ ID No. 5 (UACCACAGGGUAGAACCACGG; expressed or natural sequence; listed as Homo sapiens) | 0.91 | 2.75 log2 | 3.66 log2 | 1.54 log2 | −0.08 log2 | 1.52 log2 | 0.06 log2 | 3.55 log2 | 5.09 log2 | 5.01 log2 | 5.07 log2 | 0.33 log2 | 0.37 log2 | 0.73 log2 | 0.04 log2 | 13.12 log2 | 12.39 log2 | 12.72 log2 | 13.08 log2 | 13.12 log2 | Modulation (ratio of the level of intensity of expression in log2 in two stages of differentiation), D7 − D0 [3]: 0.33 log2; Modulation (ratio of the level of intensity of expression in log2 in two stages of differentiation), FC − D7 [3]: 0.37 log2; Modulation (ratio of the level of intensity of expression in log2 in two stages of differentiation), WD − FC [3]: 0.04 log2; Abundance (%), D0 [3]: 1.17%; Abundance (%), D7 [3]: 1.48%; Abundance (%), FC [3]: 1.85%; Abundance (%), WD [3]: 1.44%
3 | hsa-miR-141: human miRNA, SEQ ID No. 6 (UAACACUGUCUGGUAAAGAUGG; expressed or natural sequence; listed as Homo sapiens) | −2.88 | 11.12 log2 | 8.24 log2 | 2.16 log2 | −0.28 log2 | 1.88 log2 | 0.00 log2 | 11.15 log2 | 13.31 log2 | 13.03 log2 | 13.03 log2 | 1.17 log2 | 0.37 log2 | 1.70 log2 | 0.17 log2 | 9.75 log2 | 8.05 log2 | 9.22 log2 | 9.58 log2 | 9.75 log2 | Modulation (ratio of the level of intensity of expression in log2 at two stages of differentiation), FC − D7 [2]: −0.28 log2; Modulation (ratio of the level of intensity of expression in log2 at two stages of differentiation), WD − FC [2]: 0.00 log2
4 | hsa-miR-148a: human miRNA, SEQ ID No. 7 (UCAGUGCACUACAGAACUUUGU; expressed or natural sequence; listed as Homo sapiens) | −1.76 | 7.14 log2 | 5.39 log2 | 2.06 log2 | −0.50 log2 | 1.60 log2 | 0.04 log2 | 7.35 log2 | 9.41 log2 | 8.91 log2 | 8.95 log2 | 1.31 log2 | −0.28 log2 | 1.93 log2 | 0.91 log2 | 8.97 log2 | 7.04 log2 | 8.34 log2 | 8.06 log2 | 8.97 log2 | Modulation (ratio of the level of intensity of expression in log2 at two stages of differentiation), FC − D7 [2]: −0.50 log2; Modulation (ratio of the level of intensity of expression in log2 at two stages of differentiation), WD − FC [2]: 0.04 log2
